From US20260232759A1, “PEPTIDES THAT INHIBIT INFECTION BY SARS-COV-2, THE VIRUS THAT CAUSES COVID-19 DISEASE” (Wisconsin Alumni Research Foundation, priority 2021, published 2026) come the findings set out here.

The nature of series [1]: Solubility of the peptides. The series is classed as physicochemical.
The next series deals with T1, SARS-CoV-2 S (Severe acute respiratory syndrome coronavirus 2, UniProt P0DTC2).
T1 construct: expressed in transfected cells
The series is described as follows: β-Gal complementation-based cell-cell fusion assay (S-protein-mediated fusion).

Setting [2] is: IC50, inhibition of S-mediated fusion.

One may read the IC50 as the concentration that gives 50% inhibition.

Read-outs that look alike come from different tables or passages of the source. Starred links: 1 amine or outer side, 2 acyl side, 3 side chain; linkers in the order of their positions; H or OH if unused. Non-standard residues stand in square brackets, D forms with d. Residues, ends and D or L forms follow the SMILES beside them. *: point of attachment. X2 = CC(C)CCC[C@@H](C)[C@H]1CC[C@H]2[C@@H]3CC=C4C[C@@H](OC(=O)CCOCCOCCOCCOCCNC(=O)C*)CC[C@]4(C)[C@H]3CC[C@]12C; X1 = O=C([C@H]1CNC[C@@H]1N[*:1])[*:2]; β3hE = N[C@@H](CCC(=O)O)CC(=O)O; β3hQ = NC(=O)CC[C@H](N)CC(=O)O; β3hD = NC(CC(=O)O)CC(=O)O

`CC[C@H](C)[C@H](NC(=O)[C@H](C)NC(=O)[C@H](CCC(=O)O)NC(=O)[C@H](CCC(=O)O)NC(=O)[C@H](CC(C)C)NC(=O)[C@H](CCCCN)NC(=O)[C@H](CCCCN)NC(=O)[C@H](CCSC)NC(=O)[C@H](CCC(=O)O)NC(=O)[C@H](Cc1ccc(O)cc1)NC(=O)[C@H](CCC(=O)O)NC(=O)[C@H](CC(C)C)NC(=O)[C@H](CC(=O)O)NC(=O)[C@H](CC(C)C)NC(=O)[C@H](Cc1ccccc1)NC(=O)[C@@H](NC(=O)[C@@H](NC(=O)[C@H](CC(N)=O)NC(=O)[C@@H](NC(=O)[C@H](CCC(N)=O)NC(=O)[C@H](CC(=O)O)NC(=O)[C@H](CC(C)C)NC(=O)[C@@H](N)CO)[C@@H](C)CC)C(C)C)[C@@H](C)O)C(=O)N[C@@H](CCCCN)C(=O)N[C@@H](CCCCN)C(=O)N[C@@H](CC(C)C)C(=O)N[C@@H](CCC(=O)O)C(=O)N[C@@H](CCC(=O)O)C(=O)N[C@@H](CO)C(=O)N[C@@H](Cc1ccc(O)cc1)C(=O)N[C@H](C(=O)N[C@@H](CC(=O)O)C(=O)N[C@@H](CC(C)C)C(=O)N[C@@H](CCCCN)C(=O)N[C@@H](CCC(=O)O)C(=O)N[C@@H](CC(C)C)C(N)=O)[C@@H](C)CC` [EK1]: the “solubility (in words)” value in series [1] is reported as “improved solubility”.
“Ac-[β3hD]IS[β3hQ]INASVVNIEYEIKKLEEVAKKLEESLI[β3hD]LQ[β3hE]LGSGSGC(X2)-NH2 [D1 Q4 D32 E35]” registered an IC50 against SARS-CoV-2 S (setting [2]) of around 50 nM.
As for “Ac-DISQINASVVNIEYEI[X1]KLE[β3hE]VA[X1]KLE[β3hE]SLIDLQELGSGSGC(X2)-NH2 [Bf APC/B3E]”, the IC50 at SARS-CoV-2 S ([…], cell-cell fusion assay, peptides with poly(ethylene glycol)-cholesterol tail, read-out: IC50, inhibition of S-mediated fusion) is around 50 nM.
Consider `CC[C@H](C)[C@H](NC(=O)[C@H](CCC(N)=O)NC(=O)[C@H](CO)NC(=O)[C@@H](NC(=O)[C@@H](N)CC(=O)O)[C@@H](C)CC)C(=O)N[C@@H](CC(N)=O)C(=O)N[C@@H](C)C(=O)N[C@@H](CO)C(=O)N[C@H](C(=O)N[C@H](C(=O)N[C@@H](CC(N)=O)C(=O)N[C@H](C(=O)N[C@@H](CCC(=O)O)C(=O)N[C@@H](Cc1ccc(O)cc1)C(=O)N[C@@H](CCC(=O)O)C(=O)N[C@H](C(=O)N[C@@H](CCCCN)C(=O)N[C@@H](CCCCN)C(=O)N[C@@H](CC(C)C)C(=O)N[C@@H](CCC(=O)O)C(=O)N[C@@H](CCC(=O)O)C(=O)N[C@H](C(=O)N[C@@H](C)C(=O)N[C@@H](CCCCN)C(=O)N[C@@H](CCCCN)C(=O)N[C@@H](CC(C)C)C(=O)N[C@@H](CCC(=O)O)C(=O)N[C@@H](CCC(=O)O)C(=O)N[C@@H](CO)C(=O)N[C@@H](CC(C)C)C(=O)N[C@H](C(=O)N[C@@H](CC(=O)O)C(=O)N[C@@H](CC(C)C)C(=O)N[C@@H](CCC(N)=O)C(=O)N[C@@H](CCC(=O)O)C(=O)N[C@@H](CC(C)C)C(N)=O)[C@@H](C)CC)C(C)C)[C@@H](C)CC)[C@@H](C)CC)C(C)C)C(C)C` [Peptide 1] (H-DISQINASVVNIEYEIKKLEEVAKKLEESLIDLQEL-NH2; N-terminus and C-terminus assumed), for which the “solubility (in words)” value in series [1] is “improved solubility”.
At SARS-CoV-2 S (setting [2]), “Ac-[β3hD]IS[β3hQ]INASVVNIEYEIKKLEEVAKKLEESLI[β3hD]L[β3hQ]ELGSGSGC(X2)-NH2 [D1 Q4 D32 Q34]” displayed an IC50 of around 10 nM.
